Test results from patent publication US8415469B2, “Compounds and methods for kinase modulation, and indications therefor” (Plexxikon Inc., priority 2005, dated 2013).

Key:
Type in all cases: biochemical
B-Raf V600E = molecular target: T1, B-Raf V600E (Homo sapiens, UniProt P15056, V600E); test: AlphaScreen kinase assay, B-Raf V600E; settings: read-out: IC50, activity toward kinase B-Raf V600E
T1 construct: P4254. pFastBacBD-CDC37 BRAF D437-K722-X, V600E; His6 with pFastBac HT leader (TEV site) (N); made in house; host or cells: Sf9 (baculovirus; chaperone CDC37 co-expressed)
T1 sequence (P15056 with tags, fused parts or gaps V600E): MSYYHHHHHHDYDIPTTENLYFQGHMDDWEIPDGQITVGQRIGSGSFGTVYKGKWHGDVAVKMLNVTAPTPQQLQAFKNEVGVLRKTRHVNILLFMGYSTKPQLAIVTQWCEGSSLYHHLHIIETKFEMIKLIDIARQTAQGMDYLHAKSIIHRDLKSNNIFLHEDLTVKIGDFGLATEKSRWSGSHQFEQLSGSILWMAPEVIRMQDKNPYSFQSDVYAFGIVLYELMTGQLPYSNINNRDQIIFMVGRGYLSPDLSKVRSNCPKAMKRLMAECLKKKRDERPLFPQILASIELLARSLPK

B-Raf = molecular target: T2, B-Raf (Homo sapiens, UniProt P15056); test: AlphaScreen kinase assay, B-Raf; settings: read-out: IC50, activity toward kinase B-Raf
T2 construct: purchased Upstate Biotechnology
T2 sequence (P15056 whole entry): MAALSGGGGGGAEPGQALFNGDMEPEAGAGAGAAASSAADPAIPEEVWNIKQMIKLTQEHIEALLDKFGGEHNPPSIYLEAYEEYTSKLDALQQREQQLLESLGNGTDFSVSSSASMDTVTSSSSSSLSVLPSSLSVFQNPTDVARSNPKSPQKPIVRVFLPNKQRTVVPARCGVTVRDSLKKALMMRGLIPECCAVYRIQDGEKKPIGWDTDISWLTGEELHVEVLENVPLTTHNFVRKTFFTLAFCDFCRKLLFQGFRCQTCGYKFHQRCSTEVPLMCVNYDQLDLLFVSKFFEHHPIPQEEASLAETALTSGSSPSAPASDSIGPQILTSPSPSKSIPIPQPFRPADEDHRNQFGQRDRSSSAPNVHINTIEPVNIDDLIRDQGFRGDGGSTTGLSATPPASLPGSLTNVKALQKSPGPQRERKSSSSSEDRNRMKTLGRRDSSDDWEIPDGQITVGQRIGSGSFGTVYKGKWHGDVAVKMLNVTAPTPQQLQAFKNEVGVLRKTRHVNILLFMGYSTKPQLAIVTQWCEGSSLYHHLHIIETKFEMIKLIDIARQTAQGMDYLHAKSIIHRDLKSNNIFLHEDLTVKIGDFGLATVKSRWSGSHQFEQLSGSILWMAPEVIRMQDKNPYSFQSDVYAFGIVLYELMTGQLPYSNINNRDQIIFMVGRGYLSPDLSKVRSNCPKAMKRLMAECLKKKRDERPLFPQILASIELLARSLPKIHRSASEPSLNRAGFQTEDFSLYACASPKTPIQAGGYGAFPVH

FGFR1 = molecular target: T3, FGFR1 (Homo sapiens, UniProt P11362, C488A/C584S); test: AlphaScreen kinase assay, FGFR1; settings: read-out: IC50, activity toward kinase FGFR
T3 construct: P1351.pET N6 BI-PTP FGFR A458-E765-X C488A, C584S; made in house; host or cells: E. coli (PTP1B co-expressed)
T3 sequence (P11362 458-765 C488A/C584S): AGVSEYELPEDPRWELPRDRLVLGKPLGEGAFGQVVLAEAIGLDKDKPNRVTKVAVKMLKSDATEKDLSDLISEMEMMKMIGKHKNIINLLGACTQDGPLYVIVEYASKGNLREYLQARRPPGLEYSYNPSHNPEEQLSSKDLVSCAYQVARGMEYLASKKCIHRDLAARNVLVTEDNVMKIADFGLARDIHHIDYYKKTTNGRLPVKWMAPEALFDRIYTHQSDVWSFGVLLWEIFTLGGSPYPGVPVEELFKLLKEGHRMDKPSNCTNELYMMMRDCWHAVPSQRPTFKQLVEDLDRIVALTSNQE

TEC = molecular target: T4, TEC (Homo sapiens, UniProt P42680); test: AlphaScreen kinase assay, TEC; settings: read-out: IC50, activity toward kinase TEC
T4 sequence (P42680 1-631): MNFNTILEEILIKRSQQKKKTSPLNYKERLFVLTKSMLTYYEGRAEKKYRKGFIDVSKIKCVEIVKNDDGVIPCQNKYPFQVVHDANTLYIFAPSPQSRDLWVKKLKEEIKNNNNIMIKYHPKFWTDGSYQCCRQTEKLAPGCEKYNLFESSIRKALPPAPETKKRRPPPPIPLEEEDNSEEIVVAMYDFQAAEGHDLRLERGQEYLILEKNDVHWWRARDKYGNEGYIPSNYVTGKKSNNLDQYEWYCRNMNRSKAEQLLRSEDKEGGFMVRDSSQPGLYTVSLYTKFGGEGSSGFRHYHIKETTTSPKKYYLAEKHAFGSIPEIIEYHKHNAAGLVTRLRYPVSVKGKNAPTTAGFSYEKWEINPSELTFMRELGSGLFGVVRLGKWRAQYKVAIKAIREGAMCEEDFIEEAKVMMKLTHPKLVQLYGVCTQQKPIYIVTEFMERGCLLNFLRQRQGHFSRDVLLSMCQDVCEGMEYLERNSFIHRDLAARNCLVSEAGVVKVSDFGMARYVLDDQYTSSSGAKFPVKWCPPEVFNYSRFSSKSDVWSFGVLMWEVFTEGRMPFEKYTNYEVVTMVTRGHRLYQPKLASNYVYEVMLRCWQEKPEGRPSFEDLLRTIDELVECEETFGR
Description: (§1) AlphaScreen assay was used to screen additional kinases. The assay is similarly dependent on the phosphorylation of a peptide substrate. In this assay, an antibody that recognizes phosphorylated substrate is bound to an acceptor bead. The peptide substrate is attached to biotin, which binds to a donor head that contains streptavidin. Thus phosphorylated substrate is bound by antibody and streptavidin, bringing the donor and acceptor heads into close proximity when kinase is not inhibited. The donor produces singlet oxygen which results in emission from the acceptor when they are in close proximity. Conversely, when kinase is inhibited, the donor and acceptor beads are not associated and the emission from the acceptor is reduced.
(§2) AlphaScreen assays were done using compounds dissolved in DMSO to a concentration of 20 mM. The compounds were diluted accordingly to the desired final concentrations in each sample well, using 1:3 serial dilution for a total of 8 concentration points.

Kit = molecular target: T5, Kit (Homo sapiens, UniProt P10721); test: AlphaScreen kinase assay, Kit; settings: read-out: IC50, activity toward kinase Kit
T5 construct: P1332.N6 BI PTP KIT M552-K948-X COD; His6 (N); made in house; host or cells: E. coli (PTP1B co-expressed)
T5 sequence (P10721 with tags, fused parts or gaps): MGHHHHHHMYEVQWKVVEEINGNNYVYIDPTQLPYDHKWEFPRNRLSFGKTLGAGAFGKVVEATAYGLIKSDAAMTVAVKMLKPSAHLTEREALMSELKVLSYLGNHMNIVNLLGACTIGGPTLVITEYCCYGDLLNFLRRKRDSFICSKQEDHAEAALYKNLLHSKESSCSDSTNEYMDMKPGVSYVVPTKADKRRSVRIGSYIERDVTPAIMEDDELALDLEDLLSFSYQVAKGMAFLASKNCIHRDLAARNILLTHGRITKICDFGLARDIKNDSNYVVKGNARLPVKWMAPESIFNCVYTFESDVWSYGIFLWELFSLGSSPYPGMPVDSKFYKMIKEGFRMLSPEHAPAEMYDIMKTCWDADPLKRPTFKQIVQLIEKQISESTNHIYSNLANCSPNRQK

c-Raf-1 = molecular target: T6, c-Raf-1 (Homo sapiens, UniProt P04049); test: AlphaScreen kinase assay, c-Raf-1; settings: read-out: IC50, activity toward kinase c-Raf-1
T6 construct: purchased Upstate Biotechnology
T6 sequence (P04049 whole entry): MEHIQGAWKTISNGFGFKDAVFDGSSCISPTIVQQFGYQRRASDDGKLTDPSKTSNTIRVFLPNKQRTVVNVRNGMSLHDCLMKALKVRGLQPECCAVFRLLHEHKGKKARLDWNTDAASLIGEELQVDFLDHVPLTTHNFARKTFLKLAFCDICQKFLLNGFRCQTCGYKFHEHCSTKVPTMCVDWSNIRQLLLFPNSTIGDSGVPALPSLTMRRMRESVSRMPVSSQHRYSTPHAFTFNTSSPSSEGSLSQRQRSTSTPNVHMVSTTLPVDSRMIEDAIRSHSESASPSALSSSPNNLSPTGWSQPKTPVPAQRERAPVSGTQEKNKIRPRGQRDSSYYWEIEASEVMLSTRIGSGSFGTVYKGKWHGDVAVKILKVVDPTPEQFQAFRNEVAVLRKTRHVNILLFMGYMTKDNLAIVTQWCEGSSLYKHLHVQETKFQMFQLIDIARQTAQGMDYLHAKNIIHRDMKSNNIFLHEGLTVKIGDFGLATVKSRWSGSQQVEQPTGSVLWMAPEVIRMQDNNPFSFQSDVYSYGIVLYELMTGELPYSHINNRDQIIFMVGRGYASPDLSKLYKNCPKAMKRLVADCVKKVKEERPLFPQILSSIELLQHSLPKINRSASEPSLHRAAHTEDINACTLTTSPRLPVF

Itk = molecular target: T7, Itk (Homo sapiens, UniProt Q08881); test: AlphaScreen kinase assay, Itk; settings: read-out: IC50, activity toward kinase Itk
T7 sequence (Q08881 1-620): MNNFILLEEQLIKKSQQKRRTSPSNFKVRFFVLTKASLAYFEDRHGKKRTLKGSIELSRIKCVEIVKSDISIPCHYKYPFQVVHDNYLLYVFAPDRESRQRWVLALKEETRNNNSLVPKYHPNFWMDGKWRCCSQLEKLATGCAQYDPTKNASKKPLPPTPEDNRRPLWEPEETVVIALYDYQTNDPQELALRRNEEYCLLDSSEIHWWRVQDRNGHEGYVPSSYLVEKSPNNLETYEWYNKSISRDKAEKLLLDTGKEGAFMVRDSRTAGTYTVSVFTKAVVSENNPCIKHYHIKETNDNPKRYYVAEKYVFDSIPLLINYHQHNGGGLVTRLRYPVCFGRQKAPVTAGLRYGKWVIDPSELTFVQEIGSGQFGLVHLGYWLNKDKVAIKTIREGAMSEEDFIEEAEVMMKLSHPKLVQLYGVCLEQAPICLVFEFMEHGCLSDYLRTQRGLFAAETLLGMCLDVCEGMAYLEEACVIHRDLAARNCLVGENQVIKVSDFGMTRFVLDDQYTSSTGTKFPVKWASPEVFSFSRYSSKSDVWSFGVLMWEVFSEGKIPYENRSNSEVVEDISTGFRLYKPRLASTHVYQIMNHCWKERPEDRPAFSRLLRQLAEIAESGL
Description: as §1, §2

Ret = molecular target: T8, Ret (Homo sapiens, UniProt P07949); test: AlphaScreen kinase assay, Ret; settings: read-out: IC50, activity toward kinase Ret
T8 construct: P1378.pET-SF BI-PTP RET H661-R1012 HIS; made in house
T8 sequence (P07949 with tags, fused parts or gaps): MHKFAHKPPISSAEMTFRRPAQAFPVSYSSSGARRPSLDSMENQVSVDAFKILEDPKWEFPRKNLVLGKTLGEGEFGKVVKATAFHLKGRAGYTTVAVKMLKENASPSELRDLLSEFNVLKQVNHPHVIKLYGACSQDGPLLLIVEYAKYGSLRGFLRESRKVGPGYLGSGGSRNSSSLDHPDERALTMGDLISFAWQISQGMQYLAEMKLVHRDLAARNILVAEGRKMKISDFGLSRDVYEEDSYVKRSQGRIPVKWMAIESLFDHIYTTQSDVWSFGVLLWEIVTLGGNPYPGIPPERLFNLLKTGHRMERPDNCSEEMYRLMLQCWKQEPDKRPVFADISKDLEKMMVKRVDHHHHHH

IGF1R = IGF1R (Homo sapiens, UniProt P08069); test: AlphaScreen kinase assay, IGF1R; settings: read-out: IC50, activity toward kinase IGF1R
Sequence of IGF1R (P08069 31-1367): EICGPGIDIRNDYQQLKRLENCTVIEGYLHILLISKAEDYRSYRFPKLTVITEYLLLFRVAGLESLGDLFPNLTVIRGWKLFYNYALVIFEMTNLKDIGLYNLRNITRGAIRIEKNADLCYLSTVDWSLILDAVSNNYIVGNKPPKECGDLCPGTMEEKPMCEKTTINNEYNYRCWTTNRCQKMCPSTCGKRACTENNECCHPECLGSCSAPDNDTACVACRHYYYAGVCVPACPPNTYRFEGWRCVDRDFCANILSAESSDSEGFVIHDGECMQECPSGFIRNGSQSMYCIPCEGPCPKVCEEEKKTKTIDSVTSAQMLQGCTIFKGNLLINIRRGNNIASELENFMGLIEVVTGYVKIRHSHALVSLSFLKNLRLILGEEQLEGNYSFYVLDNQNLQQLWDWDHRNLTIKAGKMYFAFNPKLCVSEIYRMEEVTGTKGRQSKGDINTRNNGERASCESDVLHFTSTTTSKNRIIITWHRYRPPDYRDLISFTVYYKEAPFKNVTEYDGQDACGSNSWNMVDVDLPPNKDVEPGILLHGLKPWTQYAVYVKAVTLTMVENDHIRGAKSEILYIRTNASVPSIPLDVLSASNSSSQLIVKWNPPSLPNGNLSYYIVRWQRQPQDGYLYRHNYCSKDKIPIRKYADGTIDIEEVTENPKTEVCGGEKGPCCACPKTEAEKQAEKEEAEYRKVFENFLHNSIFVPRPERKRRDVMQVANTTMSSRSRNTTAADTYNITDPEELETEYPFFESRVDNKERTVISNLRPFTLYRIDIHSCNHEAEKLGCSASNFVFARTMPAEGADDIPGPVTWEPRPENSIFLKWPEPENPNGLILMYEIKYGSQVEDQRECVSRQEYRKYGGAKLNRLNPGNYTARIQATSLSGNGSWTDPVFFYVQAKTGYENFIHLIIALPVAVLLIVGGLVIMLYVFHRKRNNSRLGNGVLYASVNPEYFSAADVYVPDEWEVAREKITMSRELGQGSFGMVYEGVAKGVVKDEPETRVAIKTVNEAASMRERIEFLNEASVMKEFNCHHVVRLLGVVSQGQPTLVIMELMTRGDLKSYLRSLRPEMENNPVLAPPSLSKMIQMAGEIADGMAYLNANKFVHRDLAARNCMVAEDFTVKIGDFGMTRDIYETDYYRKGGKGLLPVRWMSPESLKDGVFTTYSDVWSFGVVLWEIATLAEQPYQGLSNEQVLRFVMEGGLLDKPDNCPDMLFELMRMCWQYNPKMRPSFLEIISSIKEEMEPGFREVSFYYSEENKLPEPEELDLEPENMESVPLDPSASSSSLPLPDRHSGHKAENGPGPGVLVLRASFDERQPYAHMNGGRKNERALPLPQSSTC

Met = molecular target: T9, Met (Homo sapiens, UniProt P08581); test: AlphaScreen kinase assay, Met; settings: read-out: IC50, activity toward kinase Met
T9 construct: P1818.pETN6 BI-PTP MET G1056-G1364-X WT; His6 (N); made in house; host or cells: E. coli (PTP1B co-expressed)
T9 sequence (P08581 with tags, fused parts or gaps): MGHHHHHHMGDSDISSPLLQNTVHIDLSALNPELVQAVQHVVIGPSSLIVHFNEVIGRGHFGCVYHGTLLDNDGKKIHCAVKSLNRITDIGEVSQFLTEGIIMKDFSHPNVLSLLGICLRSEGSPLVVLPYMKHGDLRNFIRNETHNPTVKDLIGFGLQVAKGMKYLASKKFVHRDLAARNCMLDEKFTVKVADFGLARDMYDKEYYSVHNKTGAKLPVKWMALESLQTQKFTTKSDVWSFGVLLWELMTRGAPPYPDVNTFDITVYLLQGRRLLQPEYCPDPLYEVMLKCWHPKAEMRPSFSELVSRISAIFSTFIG
Method in brief: (§3)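 AlphaScreen read-out: acceptor-bead emission falls when kinase is inhibited. Biotin-peptide substrate captured on streptavidin donor beads, phospho-specific antibody on acceptor beads. 8 concentrations, 1:3 dilution series, from 20 mM DMSO stocks.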

Jnk3 = molecular target: T10, Jnk3 (Homo sapiens, UniProt P53779); test: AlphaScreen kinase assay, Jnk3; settings: read-out: IC50, activity toward kinase Jnk3
T10 construct: purchased Upstate Biotechnology
T10 sequence (P53779 whole entry): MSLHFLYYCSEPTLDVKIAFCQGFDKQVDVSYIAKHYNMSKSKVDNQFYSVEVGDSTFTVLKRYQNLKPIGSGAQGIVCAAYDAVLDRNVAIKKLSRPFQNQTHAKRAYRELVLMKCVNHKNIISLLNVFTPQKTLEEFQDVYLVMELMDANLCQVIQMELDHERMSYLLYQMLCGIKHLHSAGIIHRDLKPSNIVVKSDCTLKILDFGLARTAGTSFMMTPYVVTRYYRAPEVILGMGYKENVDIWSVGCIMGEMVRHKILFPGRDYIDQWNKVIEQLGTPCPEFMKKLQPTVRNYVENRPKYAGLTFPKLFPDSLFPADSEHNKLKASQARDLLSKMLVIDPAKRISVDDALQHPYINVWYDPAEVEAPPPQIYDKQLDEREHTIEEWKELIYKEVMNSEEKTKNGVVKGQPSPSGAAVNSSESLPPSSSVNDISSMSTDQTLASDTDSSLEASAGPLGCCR

Zap70 = molecular target: T11, Zap70 (Homo sapiens, UniProt P43403); test: AlphaScreen kinase assay, Zap70; settings: read-out: IC50, activity toward kinase Zap70
T11 construct: P1868.pFastBac1 ZAP70 D327-G606 HIS, WT; His7 (HHHHHHH) (C); made in house
T11 sequence (P43403 with tags, fused parts or gaps): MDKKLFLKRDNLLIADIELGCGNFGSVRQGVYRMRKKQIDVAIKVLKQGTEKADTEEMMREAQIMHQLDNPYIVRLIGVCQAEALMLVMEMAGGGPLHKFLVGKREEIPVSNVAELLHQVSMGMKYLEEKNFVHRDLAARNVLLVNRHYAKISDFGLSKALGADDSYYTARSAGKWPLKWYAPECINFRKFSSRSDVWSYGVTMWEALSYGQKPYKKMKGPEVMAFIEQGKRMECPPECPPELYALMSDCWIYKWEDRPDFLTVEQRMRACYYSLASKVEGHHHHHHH
Method in brief: as §3

Fms = molecular target: T12, Fms (Homo sapiens, UniProt P07333); test: AlphaScreen kinase assay, Fms; settings: read-out: IC50, activity toward kinase Fms
T12 construct: purchased Upstate Biotechnology

Jak3 = molecular target: T13, Jak3 (Homo sapiens, UniProt P52333); test: AlphaScreen kinase assay, Jak3; settings: read-out: IC50, activity toward kinase Jak3
T13 sequence (P52333 1-1124): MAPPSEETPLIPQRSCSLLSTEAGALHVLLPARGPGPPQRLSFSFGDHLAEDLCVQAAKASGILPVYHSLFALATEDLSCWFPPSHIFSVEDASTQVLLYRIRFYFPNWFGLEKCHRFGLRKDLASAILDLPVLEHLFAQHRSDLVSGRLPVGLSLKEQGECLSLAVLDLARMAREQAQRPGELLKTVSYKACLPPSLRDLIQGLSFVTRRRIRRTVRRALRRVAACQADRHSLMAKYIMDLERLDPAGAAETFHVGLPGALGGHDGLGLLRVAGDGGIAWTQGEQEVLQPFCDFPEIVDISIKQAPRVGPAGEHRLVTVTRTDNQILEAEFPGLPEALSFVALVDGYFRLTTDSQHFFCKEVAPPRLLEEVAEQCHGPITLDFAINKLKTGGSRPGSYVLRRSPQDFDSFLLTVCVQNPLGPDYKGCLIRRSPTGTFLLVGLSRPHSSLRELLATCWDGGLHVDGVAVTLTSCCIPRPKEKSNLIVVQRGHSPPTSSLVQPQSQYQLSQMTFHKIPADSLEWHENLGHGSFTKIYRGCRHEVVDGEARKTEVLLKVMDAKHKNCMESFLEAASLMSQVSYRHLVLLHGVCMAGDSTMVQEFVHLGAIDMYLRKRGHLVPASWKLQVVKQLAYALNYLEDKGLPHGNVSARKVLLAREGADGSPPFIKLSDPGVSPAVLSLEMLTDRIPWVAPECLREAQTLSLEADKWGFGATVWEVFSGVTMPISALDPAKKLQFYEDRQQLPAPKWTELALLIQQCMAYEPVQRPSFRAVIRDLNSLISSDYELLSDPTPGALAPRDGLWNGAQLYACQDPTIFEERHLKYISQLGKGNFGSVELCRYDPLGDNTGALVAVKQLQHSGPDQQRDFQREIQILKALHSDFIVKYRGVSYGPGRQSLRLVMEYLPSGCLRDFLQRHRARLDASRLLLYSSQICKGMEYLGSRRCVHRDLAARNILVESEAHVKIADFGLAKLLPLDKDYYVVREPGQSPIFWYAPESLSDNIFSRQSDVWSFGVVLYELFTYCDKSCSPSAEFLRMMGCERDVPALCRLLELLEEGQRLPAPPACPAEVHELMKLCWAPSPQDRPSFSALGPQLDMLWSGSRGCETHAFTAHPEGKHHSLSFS
Description: as §1, §2

IKK beta = molecular target: T14, IKK beta (Homo sapiens, UniProt O14920); test: AlphaScreen kinase assay, IKK beta; settings: read-out: IC50, activity toward kinase IKK beta
T14 sequence (O14920 1-756): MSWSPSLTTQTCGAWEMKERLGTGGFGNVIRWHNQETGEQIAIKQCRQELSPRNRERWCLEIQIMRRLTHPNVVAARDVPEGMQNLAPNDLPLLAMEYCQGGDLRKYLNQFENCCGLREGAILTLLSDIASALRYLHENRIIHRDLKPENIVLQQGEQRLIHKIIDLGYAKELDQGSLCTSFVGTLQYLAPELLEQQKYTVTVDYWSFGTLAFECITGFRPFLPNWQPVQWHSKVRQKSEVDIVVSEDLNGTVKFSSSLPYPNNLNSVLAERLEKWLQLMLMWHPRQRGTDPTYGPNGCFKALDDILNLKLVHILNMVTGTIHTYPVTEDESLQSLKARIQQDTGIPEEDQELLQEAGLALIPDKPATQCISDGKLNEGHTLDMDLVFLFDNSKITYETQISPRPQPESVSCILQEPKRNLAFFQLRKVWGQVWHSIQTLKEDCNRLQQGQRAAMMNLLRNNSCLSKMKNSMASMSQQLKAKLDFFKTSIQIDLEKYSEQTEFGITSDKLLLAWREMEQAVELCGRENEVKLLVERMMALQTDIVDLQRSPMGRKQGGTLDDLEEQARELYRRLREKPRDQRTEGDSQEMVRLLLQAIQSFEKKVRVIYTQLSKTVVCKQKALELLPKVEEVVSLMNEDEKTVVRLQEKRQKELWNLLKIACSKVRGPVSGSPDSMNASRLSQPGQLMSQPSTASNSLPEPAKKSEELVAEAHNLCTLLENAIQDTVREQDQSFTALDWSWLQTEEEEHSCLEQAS

Kdr = molecular target: T15, Kdr (Homo sapiens, UniProt P35968); test: Z'-Lyte FRET kinase assay (Invitrogen), Kdr; settings: read-out: IC50, activity toward kinase Kdr
T15 construct: purchased Invitrogen (assay run by Invitrogen)

IC50 (B-Raf V600E) [µM]	IC50 (B-Raf) [µM]	IC50 (FGFR1) [µM]	IC50 (TEC) [µM]	IC50 (Kit) [µM]	IC50 (c-Raf-1) [µM]	IC50 (Itk) [µM]	IC50 (Ret) [µM]	IC50 (IGF1R) [µM]	IC50 (Met) [µM]	IC50 (Jnk3) [µM]	IC50 (Zap70) [µM]	IC50 (Fms) [µM]	IC50 (Jak3) [µM]	IC50 (IKK beta) [µM]	IC50 (Kdr) [µM]	Compound
≤ 10	≤ 10	≤ 10	≤ 10	≤ 10	≤ 10	–	–	–	–	–	–	–	–	–	–	COc1ccc(S(=O)(=O)Nc2ccc(F)c(C(=O)c3c[nH]c4ncc(Cl)cc34)c2F)cc1 [Compound P-0983, N-[3-(5-Chloro-1H-pyrrolo[2,3-b]pyridine-3-carbonyl)-2,4-difluoro-phenyl]-4-methoxy-benzenesulfonamide]
≤ 10	≤ 10	–	–	–	≤ 10	≤ 10	≤ 10	≤ 10	≤ 10	≤ 10	≤ 10	–	–	–	–	CS(=O)(=O)Nc1cccc(-c2cnc3[nH]cc(C(=O)c4cc(O)ccc4F)c3c2)c1 [Compound P-0716, N-{3-[3-(2-Fluoro-5-hydroxy-benzoyl)-1H-pyrrolo[2,3-b]pyridin-5-yl]-phenyl}-methanesulfonamide]
–	–	≤ 10	–	–	–	≤ 10	–	≤ 10	–	–	–	≤ 10	–	–	–	CS(=O)(=O)Nc1cccc(-c2cnc3[nH]ccc3c2)c1 [Compound P-1337]
–	–	–	–	–	–	–	–	≤ 10	–	–	–	–	≤ 10	≤ 10	≤ 10	OCc1cccc(-c2ccnc3[nH]ccc23)c1 [Compound P-0084]
